This note sets out measurements from US8846933B2, “N-link hydroxamic acid derivatives useful as antibacterial agents” (Pfizer Inc., priority 2009, dated 2014).

Bounds are passed on as bounds.

Assay [1] concerns Escherichia coli EC-1: VOGEL, mouse virulent. The assay is described as follows: MIC determination (CLSI), strain EC-1. It counts as cell-based. The note with it: strain EC-1; generated in the same manner as in Table 4; unit assumed. Put shortly: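 The mouse-virulent VOGEL isolate of E. coli, EC-1, served as test organism. Minimum inhibitory concentration was measured by CLSI dilution methodology (M7-A7; M100-S18 standards).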

For assay [2], the system named is Pseudomonas aeruginosa UI-18: Wild-type (PA-7). In words: MIC determination (CLSI), strain PA-7. It counts as cell-based. The settings on record: strain PA-7; generated in the same manner as in Table 4; unit assumed. The method, boiled down: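 Strain tested was P. aeruginosa UI-18, a wild-type isolate labelled PA-7. Minimum inhibitory concentrations followed CLSI dilution methodology for aerobically growing bacteria (M7-A7, M100-S18).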

In assay [1], `CC(CCn1ccc(-c2ccccc2F)cc1=O)(C(=O)NO)S(C)(=O)=O` (stereo not drawn) [Example 159, 4-[4-(2-fluorophenyl)-2-oxopyridin-1(2H)-yl]-N-hydroxy-2-methyl-2-(methylsulfonyl)butanamide] returned an EC-1 (MIC) of 2 µg/mL. For the same compound, the PA-7 (MIC) in assay [2] came to 2 µg/mL.
As to `Cc1ccc(S(=O)(=O)N(C)C)cc1-c1ccn(CCC(C)(C(=O)NO)S(C)(=O)=O)c(=O)c1` (stereo not drawn) [Example 160, 4-[4-{5-[(dimethylamino)sulfonyl]-2-methylphenyl}-2-oxopyridin-1(2H)-yl]-N-hydroxy-2-methyl-2-(methylsulfonyl)butanamide], in assay [1], the EC-1 (MIC) is > 64 µg/mL. For the same compound, the PA-7 (MIC) in assay [2] was > 64 µg/mL.
`COc1ccc(-c2ccn(CCC(C)(C(=O)NO)S(C)(=O)=O)c(=O)c2)c(OC)c1` (stereo not drawn) [Example 161, 4-[4-(2,4-dimethoxyphenyl)-2-oxopyridin-1(2H)-yl]-N-hydroxy-2-methyl-2-(methylsulfonyl)butanamide]: the EC-1 (MIC) in assay [1] came out at 8 µg/mL. In assay [2], this compound had a PA-7 (MIC) of 8 µg/mL.
With `CN1Cc2ccc(-c3ccn(CCC(C)(C(=O)NO)S(C)(=O)=O)c(=O)c3)cc2C1=O` (stereo not drawn) [Example 162, N-hydroxy-2-methyl-4-[4-(2-methyl-3-oxo-2,3-dihydro-1H-isoindol-5-yl)-2-oxopyridin-1(2H)-yl]-2-(methylsulfonyl)butanamide], in assay [1], the EC-1 (MIC) was > 64 µg/mL. Besides, the PA-7 (MIC) in assay [2] was > 64 µg/mL.
In assay [1], `CC(CCn1ccc(-c2cccc(Cl)c2Cl)cc1=O)(C(=O)NO)S(C)(=O)=O` (stereo not drawn) [Example 163, 4-[4-(2,3-dichlorophenyl)-2-oxopyridin-1(2H)-yl]-N-hydroxy-2-methyl-2-(methylsulfonyl)butanamide] gave an EC-1 (MIC) of 0.5 µg/mL. In assay [2], this compound registered a PA-7 (MIC) of 1 µg/mL.
With `CC(CCn1ccc(-c2ccc3c(c2)CCO3)cc1=O)(C(=O)NO)S(C)(=O)=O` (stereo not drawn) [Example 164, 4-[4-(2,3-dihydro-1-benzofuran-5-yl)-2-oxopyridin-1(2H)-yl]-N-hydroxy-2-methyl-2-(methylsulfonyl)butanamide], the EC-1 (MIC) in assay [1] came out at 8 µg/mL. The compound also showed a PA-7 (MIC) in assay [2] of 32 µg/mL.
Consider `CC(CCn1ccc(-c2cnn(Cc3ccccc3)c2)cc1=O)(C(=O)NO)S(C)(=O)=O` (stereo not drawn) [Example 165, 4-[4-(1-benzyl-1H-pyrazol-4-yl)-2-oxopyridin-1(2H)-yl]-N-hydroxy-2-methyl-2-(methylsulfonyl)butanamide], for which the EC-1 (MIC) in assay [1] is > 64 µg/mL. The PA-7 (MIC) in assay [2] is > 64 µg/mL.
For `COc1cc(F)ccc1-c1ccn(CCC(C)(C(=O)NO)S(C)(=O)=O)c(=O)c1` (stereo not drawn) [Example 166, 4-[4-(4-fluoro-2-methoxyphenyl)-2-oxopyridin-1(2H)-yl]-N-hydroxy-2-methyl-2-(methylsulfonyl)butanamide], the EC-1 (MIC) in assay [1] was found to be 16 µg/mL. In assay [2], this compound registered a PA-7 (MIC) of 8 µg/mL.
`CC(=O)c1ccc(-c2ccn(CCC(C)(C(=O)NO)S(C)(=O)=O)c(=O)c2)s1` (stereo not drawn) [Example 167, 4-[4-(5-acetyl-2-thienyl)-2-oxopyridin-1(2H)-yl]-N-hydroxy-2-methyl-2-(methylsulfonyl)butanamide] returned an EC-1 (MIC) in assay [1] of 16 µg/mL. Also, in assay [2], the PA-7 (MIC) worked out at 16 µg/mL.
In the case of `CC(C)Oc1ncccc1-c1ccn(CCC(C)(C(=O)NO)S(C)(=O)=O)c(=O)c1` (stereo not drawn) [Example 168, N-hydroxy-4-(2-isopropoxy-2′-oxo-3,4′-bipyridin-1′(2′H)-yl)-2-methyl-2-(methylsulfonyl)butanamide], the EC-1 (MIC) in assay [1] is > 64 µg/mL. The PA-7 (MIC) in assay [2] was > 64 µg/mL.
`CC(CCn1ccc(-c2cccc(C#N)c2)cc1=O)(C(=O)NO)S(C)(=O)=O` (stereo not drawn) [Example 169, 4-[4-(3-cyanophenyl)-2-oxopyridin-1(2H)-yl]-N-hydroxy-2-methyl-2-(methylsulfonyl)butanamide]: in assay [1], the EC-1 (MIC) was > 64 µg/mL. Also, the PA-7 (MIC) in assay [2] stood at 64 µg/mL.
Taken in the same sequence, the figures for `COc1ccc(-c2ccn(CCC(C)(C(=O)NO)S(C)(=O)=O)c(=O)c2)cc1` (stereo not drawn) [Example 170, N-hydroxy-4-[4-(4-methoxyphenyl)-2-oxopyridin-1(2H)-yl]-2-methyl-2-(methylsulfonyl)butanamide] were 1 µg/mL and 1 µg/mL.
Compound `Cc1ccc(F)cc1-c1ccn(CCC(C)(C(=O)NO)S(C)(=O)=O)c(=O)c1` (stereo not drawn) [Example 171, 4-[4-(5-fluoro-2-methylphenyl)-2-oxopyridin-1(2H)-yl]-N-hydroxy-2-methyl-2-(methylsulfonyl)butanamide] came in with an EC-1 (MIC) in assay [1] of 64 µg/mL. In addition, in assay [2], the PA-7 (MIC) was 32 µg/mL.
Take `Cn1ccnc1-c1cccc(-c2ccn(CCC(C)(C(=O)NO)S(C)(=O)=O)c(=O)c2)c1` (stereo not drawn) [Example 172, N-hydroxy-2-methyl-4-{4-[3-(1-methyl-1H-imidazol-2-yl)phenyl]-2-oxopyridin-1(2H)-yl}-2-(methylsulfonyl)butanamide]: the EC-1 (MIC) in assay [1] is > 64 µg/mL. For the same compound, in assay [2], the PA-7 (MIC) was > 64 µg/mL.
Regarding `COc1ccc(F)cc1-c1ccn(CCC(C)(C(=O)NO)S(C)(=O)=O)c(=O)c1` (stereo not drawn) [Example 173, 4-[4-(5-fluoro-2-methoxyphenyl)-2-oxopyridin-1(2H)-yl]-N-hydroxy-2-methyl-2-(methylsulfonyl)butanamide], the EC-1 (MIC) in assay [1] was 64 µg/mL. The PA-7 (MIC) in assay [2] came to 64 µg/mL.
For the compound `CC(CCn1ccc(-c2ccc(C(F)(F)F)cc2C(F)(F)F)cc1=O)(C(=O)NO)S(C)(=O)=O` (stereo not drawn) [Example 174, 4-{4-[2,4-bis(trifluoromethyl)phenyl]-2-oxopyridin-1(2H)-yl}-N-hydroxy-2-methyl-2-(methylsulfonyl)butanamide], the EC-1 (MIC) in assay [1] turned out to be 64 µg/mL. Moreover, in assay [2], the PA-7 (MIC) is > 64 µg/mL.
Compound `CC(CCn1ccc(-c2ccco2)cc1=O)(C(=O)NO)S(C)(=O)=O` (stereo not drawn) [Example 175, 4-[4-(2-furyl)-2-oxopyridin-1(2H)-yl]-N-hydroxy-2-methyl-2-(methylsulfonyl)butanamide] yielded an EC-1 (MIC) in assay [1] of 64 µg/mL. In assay [2], this compound had a PA-7 (MIC) of 16 µg/mL.
In the case of `CC(CCn1ccc(-c2ccc3cc[nH]c3c2)cc1=O)(C(=O)NO)S(C)(=O)=O` (stereo not drawn) [Example 176, N-hydroxy-4-[4-(1H-indol-6-yl)-2-oxopyridin-1(2H)-yl]-2-methyl-2-(methylsulfonyl)butanamide], the EC-1 (MIC) in assay [1] worked out at 8 µg/mL. The compound also had a PA-7 (MIC) in assay [2] of 4 µg/mL.
With `CCNC(=O)c1ccc(-c2ccn(CCC(C)(C(=O)NO)S(C)(=O)=O)c(=O)c2)cc1F` (stereo not drawn) [Example 177, N-ethyl-2-fluoro-4-{1-[4-(hydroxyamino)-3-methyl-3-(methylsulfonyl)-4-oxobutyl]-2-oxo-1,2-dihydropyridin-4-yl}benzamide], in assay [1], the EC-1 (MIC) was > 64 µg/mL. The compound also gave a PA-7 (MIC) in assay [2] of 64 µg/mL.
`Cc1cccc(-c2ccn(CCC(C)(C(=O)NO)S(C)(=O)=O)c(=O)c2)c1` (stereo not drawn) [Example 178, N-hydroxy-2-methyl-4-[4-(3-methylphenyl)-2-oxopyridin-1(2H)-yl]-2-(methylsulfonyl)butanamide] had an EC-1 (MIC) in assay [1] of 4 µg/mL. The compound further returned a PA-7 (MIC) in assay [2] of 2 µg/mL.
`CN1Cc2cc(-c3ccn(CCC(C)(C(=O)NO)S(C)(=O)=O)c(=O)c3)ccc2C1=O` (stereo not drawn) [Example 179, N-hydroxy-2-methyl-4-[4-(2-methyl-1-oxo-2,3-dihydro-1H-isoindol-5-yl)-2-oxopyridin-1(2H)-yl]-2-(methylsulfonyl)butanamide]: in assay [1], the EC-1 (MIC) was > 64 µg/mL. The PA-7 (MIC) in assay [2] was > 64 µg/mL.
